Experimental data from PubChem BioAssay AID2305 (GlaxoSmithKline (GSK), 2010).
“And” between values parts separate entries of the source, which are not always exact repeats. Equal values may be shown once.

test system: P. falciparum 3D7 growth, pLDH absorbance; assay: blood-stage malaria parasite growth potency – strain 3D7, dose response (AID 2305)

SMILES	IC50
CN1CCCN(c2ccnc3cc4c(cc23)N(C(=O)c2ccc(C(F)(F)F)cc2)CC4)CC1	790 nM
Cc1cc(=O)c(-c2ccc(Oc3cccc(C(F)(F)F)c3)cc2)c(C)[nH]1	630 nM and 210 nM
Cc1cc(N[C@@H](Cc2ccccc2)C(=O)NCCOc2ccccc2)nc(NCCc2ccccn2)n1	1520 nM
COc1ccc2c(NN=Cc3ccncc3)cc(C)nc2c1	810 nM
COc1cc2c(C3CCN(CC4CCC(NC(=O)/C=C/c5ccc(Cl)c(Cl)c5)CC4)CC3)c[nH]c2cn1 (configuration not stated)	420 nM
CC(=O)Nc1ccc(C(=O)Nc2cccc(-c3ccc(-c4nc5c(C)cccc5[nH]4)cc3)c2)cn1	190 nM
O=C(CCCCCNC(=O)c1ccc(O)c(-c2ccc(Cl)c(Cl)c2)c1)NC1CCCCCC1	950 nM
Cc1nc(-c2ccc(C#N)cc2)sc1C(=O)NCCCCN1CCC(c2ccc3c(c2OCCO)CCCC3)CC1	850 nM
C#CCN1CCC2=C(C1)c1c(O)cc(C(C)C(C)CCc3ccc(F)cc3)cc1OC2(C)C (configuration not stated)	180 nM
COc1cc2nc(N3CCC(CNC(=O)c4cc(Br)c(Br)s4)CC3)nc(N)c2cc1OC	710 nM
CC(CNc1ccnc(Nc2ccc3[nH]c(=O)[nH]c3c2)n1)c1ccccc1 (configuration not stated)	700 nM
NC(N)=NC(=O)Nc1cc(F)c(Cl)c(Cl)c1	500 nM
CCN(CC)c1ccc2nc(N)nc(N)c2c1	70 nM
COc1ccc(NC(=O)c2ccc(Br)c(C)c2)cc1N1CCN(CCCc2c[nH]c3ccccc23)CC1	380 nM
NC1=NC(c2ccccc2)(c2cccc(O)c2)C(=O)N1CCCc1ccccc1 (configuration not stated)	1230 nM and 840 nM
Nc1c2c(nc3ccc(Oc4ccc(Br)cc4Br)cc13)CCCC2	860 nM
CON(C)C(=O)[C@@H](CCCCNC(=O)OCc1ccccc1)NC(=O)OC(C)(C)C	190 nM
Cc1cccc2[nH]c(-c3cccc(-c4ccc(C(=O)NCc5nccn5C)cc4)c3)nc12	1320 nM
CCOc1cc(C(=O)NC2CC(C)(C)NC(C)(C)C2)ccc1-c1nc2ccc(Cl)cc2[nH]1	990 nM
Oc1cccc(CNCCCN(Cc2ccccc2)c2ccccc2)c1	600 nM
Fc1ccc2nc(-c3ccc(-c4ccc(CN5CCCCC5)cc4)cc3)[nH]c2c1	350 nM
c1ccc(CCNCc2cccc(-c3ccc(CNc4ccc5ncccc5c4)cc3)c2)cc1	810 nM
O=C(NCc1ccccc1)O[C@@H]1CNCC[C@H]1c1ccc(C(O)Cc2ccccc2)cc1 (some centres not stated)	580 nM
Oc1cccc(C2CCCN(Cc3cccc4cc[nH]c34)C2)c1 (configuration not stated)	510 nM

SMILES	IC50
COc1cccc(CN2CCCN(Cc3cccc(NC(=O)c4cc5ccccc5s4)c3)CC2)c1	1010 nM
Cc1cc(N(C)C)nc(Nc2ccc(NC(=O)COc3ccccc3)cc2)n1	1760 nM
CC[C@H]1CN2CC[C@@H]1C[C@H]2[C@H](O)c1cc(N2CCC(CO)CC2)nc2ccc(OC)cc12	160 nM
COc1cc(C=CC(=O)N2CCN(Cc3cccc(C)c3)CC2)ccc1OCc1c(C)noc1C	1030 nM
CCOc1ccc(C(=O)N2CCOC(CCN3CCC(c4ccccc4)CC3)(c3ccc(Cl)c(Cl)c3)C2)cc1 (configuration not stated)	850 nM
CC(C)c1ccc(NC(=O)c2ccc(C(=O)NC3CCN(CC4CCCCC4)CC3)cc2)cc1	650 nM
COc1ccc2ncc(F)c(CCN3CC[C@H](NCc4cc(C#N)c5c(c4)OCCO5)[C@H](O)C3)c2c1	890 nM
COC(=O)c1ccc2nc(-c3ccc(C(=O)NC4CCN(Cc5ccccc5)CC4)s3)[nH]c2c1	690 nM
Cc1cc(N(C)C2CCN(C)CC2)nc(Nc2ccc(Cl)cc2)n1	290 nM
Cc1ccc(CC(C)NCC(O)c2cccc(C(F)(F)F)c2)c(C)c1 (configuration not stated)	700 nM
CN(C)S(=O)(=O)n1ccc2c3c(N)nc(N)nc3ccc21	50 nM
O=C(/C=C/c1ccc(Cl)c(Cl)c1)NCCCCCN1CCCC(CNC(=O)Nc2ccc(C(F)(F)F)cc2)C1 (configuration not stated)	670 nM
CN(C)c1ccnc2ccc(NC(=O)Nc3ccnc4ccccc34)cc12	130 nM
O=C(Cc1ccc(F)cc1)NC1CCN(c2ccnc3cc(Cl)ccc23)C1 (configuration not stated)	480 nM
CC(C)C[C@H](NC(=O)c1cc2ccccc2s1)C(=O)N[C@H]1CCN(Cc2ccc(OC[C@@H]3CCCN3C)c(Cl)c2)C1	850 nM
Cc1cc(NN=Cc2ccccc2)c2cc(C(F)(F)F)ccc2n1	150 nM
CCCCn1c(C)c(C(=O)OCC)c2cc(OC(C)=O)c(Br)cc21	630 nM
O=C(/C=C/c1ccc(Cl)c(Cl)c1)NCCCCCN1CC[C@H](NC(=O)c2sc3ccccc3c2Cl)C1	810 nM
CCCNCc1ccc(-c2ccc(CN(CCOC)C(=O)CC3CCCC3=O)cc2)nc1 (configuration not stated)	1240 nM
O=C(CNCC1CCCCC1)Nc1cc(C(F)(F)F)ccc1Cl	980 nM
COc1cc2nc(N(C)C)nc(Nc3ccc4c(cnn4Cc4ccccc4)c3)c2cc1OC	40 nM
CC(=O)Nc1ccc(OCCCCN(Cc2ccccc2C(F)(F)F)c2ccc(C(F)(F)F)c(C#N)c2)c(Cl)c1	550 nM
Cc1ccc2[nH]c3ccccc3c(=O)c2c1	860 nM
O=C1c2ccccc2CN1CCCN1CCC(Oc2ccc(F)cc2)CC1	1210 nM

SMILES	IC50
c1cc(OCCN2CCCC2)ccc1CNC1CCN(CC2CCCCC2)CC1	840 nM
COc1ccc2nccc([C@@H](O)CN3CCC(NCc4nc5c(F)cccc5[nH]4)CC3)c2c1	470 nM
O=C(Nc1ccc(Cl)cc1)Nc1cccc(-c2ccc(-c3nc4ccc(F)cc4[nH]3)cc2)c1	50 nM
O=C(Nc1cccc(CN2CCCN(Cc3ccc(O)cc3)CC2)c1)c1ccc(Br)cc1	800 nM
CCc1c(C(=O)NC2CCC(N3CCC(c4ccccc4OC)CC3)CC2)[nH]c2ccc(Br)cc12 (configuration not stated)	1120 nM
CCC(c1ccccc1)c1nn2c(-c3cccs3)nnc2s1 (configuration not stated)	170 nM
CN1CCN(c2ccc(-c3cccc(NC(=O)c4cccc([N+](=O)[O-])c4)c3)nn2)CC1	530 nM
CC(=O)Nc1ccc(OCCCN(Cc2ccccc2C(F)(F)F)c2ccc(C(F)(F)F)c(C#N)c2)c(Cl)c1	1450 nM
O=C(Nc1cccc(C(F)(F)F)c1)c1cccc2[nH]c(C(F)(F)F)nc12	640 nM
O=C(Nc1ccccc1)N(Cc1cccc(-c2ccc(CNCCc3ccccc3)cc2)c1)C1CCN(Cc2ccccc2)CC1	350 nM
Cc1[nH]c(C)c([N+](=O)[O-])c(=O)c1-c1ccc(Oc2ccccc2)cc1	270 nM
Cc1noc(-c2ccc(O)cc2O)c1-c1ccc2c(c1)OCCCO2	890 nM
Cc1cc(F)ccc1[C@H]1C[C@H](N2CCOCC2)CCN1C(=O)N(C)[C@@H](C)c1cc(C(F)(F)F)cc(C(F)(F)F)c1	760 nM
CCCC(=O)NC(c1cccs1)c1cc(Cl)c2cccnc2c1O (configuration not stated)	850 nM
COc1ccc(NC(=O)[C@H](Cc2ccccc2)Nc2cc(C)nc(NCCc3ccccc3OC)n2)cc1	530 nM
CN(C)c1ccc(C=C2SC(=N)N(c3nccs3)C2=O)cc1	460 nM
COc1cc(NC(=O)/C=C/c2ccccc2OC(F)(F)F)cc(OCCN2CCN(CCN3CCOCC3)CC2)c1	160 nM
Cc1c(CCC#N)c(NCc2ccccc2)n2c(nc3ccccc32)c1C#N	880 nM
CC(=NNC(=S)NCCc1ccccn1)c1ccccn1	320 nM
CCCc1cc(NC2CCN(C)CC2)nc(Nc2cccc(OC)c2)n1	770 nM
CC(C)(C)c1ccc(CN2CCC(NC(=O)c3ccc(-c4cccc(C(F)(F)F)c4)s3)CC2)cc1	360 nM
CCN(CC)CCCSc1ccc(-c2ccc(SCCCN(CC)CC)cc2)cc1	1160 nM
C[C@H]1CN(Cc2cccc(-c3cc(CNC(=O)c4cccc(CN5CCN(C/C=C/c6ccccc6)CC5)c4)ccc3F)c2)CCN1	850 nM
CC(C)(C)Oc1ccc(NC(=O)c2ccccc2O)cc1	1010 nM
